We go through three compounds from US5196412A, “Gallium compounds” (Johnson Matthey, Inc., priority 1991, dated 1993).

Like-named read-outs stand apart in the source and are kept apart here.

A short description of data set [1]: oral absorption of gallium in rats (4-hour plasma gallium AUC). The settings on record: rat, 0.067 mmol/kg, 0-4 hours, absorption from the intestine. It is filed as in vivo, Male Sprague Dawley rats. On the procedure: According to the invention, compounds were tested for oral absorption in rats. Male Sprague Dawley rats weighing 150-225 g were purchased from Harlan Sprague Dawley, Inc. (Indianapolis, Ind.). The gallium standard solution is from Aldrich Chemical Co (Milwaukee, Wis.). Metofane is a product from Pitman-Moore (Mundelein, Ill.), and all other chemicals are commercially available. Gallium test compounds were dissolved in 18 megaohm water (Millipore, Bedford, Mass.) or suspended in 0.5% carboxymethyl cellulose in 5% ethanol, if the compound was not water soluble. The suspensions were sonicated at room temperature for about 5 minutes. […]
Sutures were made with 3-4 stitches with 3-0 silk surgical thread (Ethicon Inc, Somerville, N.J.). […] The blood was placed in 1 ml Eppendorf tubes precoated with 50 μl heparin (1,000 U/ml and air dried, so there was no blood dilution involved. The plasma was recovered after the blood was centrifuged for 2 minutes in a Fischer Micro-centrifuge, Model 235B, and its gallium content measured by a Varian Flameless Atomic Absorption Spectrometer. The standard curve was linear in the gallium concentrations of 5-100 ng/ml. The data under the […] versus time curve (AUC) for 0-4 hours was estimated. […]

The conditions of data set [2]: pH 4.5-7; cited from earlier work.
For the next data set, the system named is gastro-intestinal tract. The settings on record: pH 4.5-7; cited from earlier work.
Data set [3] has as its system cancer-associated hypercalcemia. The settings on record: cited from earlier work.
For another data set, the system named is bone. The following applies: cited from earlier work.
The next data set has as its system renal toxicity. The following applies: cited from earlier work.

On to `O=[N+]([O-])[O-].O=[N+]([O-])[O-].O=[N+]([O-])[O-].[Ga+3]` [Ga(NO3)3, gallium nitrate], for which the “4-hour plasma gallium AUC” value in data set [1] was 897 (ng//ml)h.

Turning to `[Ga+3]` [gallium(III) aquo-ion], in data set [2], the hydrolysis result is given as “extensively hydrolysed to insoluble hydroxides”. In the data set with gastro-intestinal tract, the absorption entry is given as “very poorly absorbed”.

As for `[Ga]` [gallium], in data set [3] (patients with hypercalcemia of malignancy), the serum calcium result is on record as “reduce serum calcium”. Further, in data set [3] (seven day continuous i.v. infusion), the “efficacy in cancer-associated hypercalcemia” value was “effective”. In the data set with bone, the bone strength result is on record as “increases bone strength” and the “resorption of calcium from bone” value was “inhibiting the resorption of calcium from bone”. For the same compound, in the data set with renal toxicity (i.v. bolus), the renal toxicity entry was “renal toxicity is dose-limiting”. The renal toxicity entry in the data set with renal toxicity (seven day continuous i.v. infusion, cancer-associated hypercalcemia) is recorded as “showed no renal toxicity”.
